Key:
Type in all cases: in vivo
[1] = system: barnyard grass; experiment: Herbicidal activity test against upland field weeds (foliar treatment test); set-up: key to Foliar treatment herbicidal activity, barnyard grass: 0 (no control); 100 (complete control); conditions: 50 g ai/ha, scale 0-100; for pest or weed control at 50 g/ha: Echinochloa crus-galli
How it was run: (§1)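 Visual 0–100 control ratings relative to untreated plants, taken 14 (or 21) days after spraying foliage at 50 or 75 g a.i./ha. Spray solution: 50% acetone with 0.1% Tween-20; plants kept in greenhouse at 30±5 °C, 14 h light/10 h dark.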

[2] = system: crabgrass; experiment: as above; set-up: key to Foliar treatment herbicidal activity, Crabgrass: 0 (no control); 100 (complete control); conditions: 50 g ai/ha, scale 0-100; for pest or weed control at 50 g/ha: Digitaria sanguinalis
How it was run: as §1

[3] = system: fall panicum; experiment: as above; conditions: Panicum dichotomiflorum, 50 g ai/ha, scale 0-100
How it was run: as §1

[4] = system: black nightshade; experiment: as above; set-up: key to Foliar treatment herbicidal activity, black nightshade: 0 (no control); 100 (complete control); conditions: 50 g ai/ha, scale 0-100
How it was run: as §1

[5] = system: indian jointvetch; experiment: as above; conditions: 50 g ai/ha, scale 0-100
How it was run: as §1

[6] = system: bindweed; experiment: as above; conditions: 50 g ai/ha, scale 0-100
How it was run: as §1

[7] = system: sorghum; experiment: Herbicidal activity test against upland field weeds (soil treatment test); set-up: key to Soil treatment herbicidal activity, Sorghum: 0 (no control); 100 (complete control); conditions: 50 g ai/ha, scale 0 (no control) to 100 (complete control); for plant injury at 50 g/ha: Sorghum
How it was run: (§2)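 Weed control scored visually on a 0 (none) to 100 (complete) scale versus untreated pots at 14 or 21 days in greenhouse (30±5 °C, 14 h light). Test compounds, 50 or 75 g a.i./ha in 50% acetone/0.1% Tween-20, hand-sprayed onto soil one day post-sowing.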

[8] = system: fall panicum; experiment: as above; set-up: key to Soil treatment herbicidal activity, Fall panicum: 0 (no control); 100 (complete control); conditions: 50 g ai/ha, scale 0 (no control) to 100 (complete control); for pest or weed control at 50 g/ha: Panicum dichotomiflorum
How it was run: as §2

[9] = system: cocklebur; experiment: as above; set-up: key to Soil treatment herbicidal activity, Cocklebur: 0 (no control); 100 (complete control); conditions: 50 g ai/ha, scale 0 (no control) to 100 (complete control)
How it was run: as §2

[10] = system: corn; experiment: Phytotoxicity test for field crops (soil treatment test); set-up: key: 0 (no harm); 9 (complete withered)
How it was run: (§3)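 Crops sown in sterilized horticultural soil (pH 6.1, organic material 1.0%) with mixed fertilizer (N:P:K=17:21:17); one day after sowing, soil sprayed with compound in 33% acetone/0.1% Tween-20 at 19˜300 g a.i./ha. Greenhouse at 30±5° C, 14/10 h light/dark; injury scored visually 0–9 versus untreated control at 10 and 20 days.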

[11] = system: cotton; experiment: as above; set-up: key: 0 (no harm); 9 (complete withered)
How it was run: as §3

[12] = system: rice; experiment: as above; set-up: key: 0 (no harm); 9 (complete withered)
How it was run: as §3

[13] = system: soybean; experiment: as above; set-up: key: 0 (no harm); 9 (complete withered)
How it was run: as §3

[14] = system: wheat; experiment: as above; set-up: key: 0 (no harm); 9 (complete withered)
How it was run: as §3

[15] = 50 g ai/ha, Corn (10 days after treatment)
[16] = 50 g ai/ha, Corn (20 days after treatment)
[17] = 100 g ai/ha, Corn (10 days after treatment)
[18] = 100 g ai/ha, Corn (20 days after treatment)
[19] = 50 g ai/ha, Cotton (10 days after treatment)
[20] = 50 g ai/ha, Cotton (20 days after treatment)
[21] = 100 g ai/ha, Cotton (10 days after treatment)
[22] = 100 g ai/ha, Cotton (20 days after treatment)
[23] = 50 g ai/ha, Rice (10 days after treatment)
[24] = 50 g ai/ha, Rice (20 days after treatment)
[25] = 100 g ai/ha, Rice (10 days after treatment)
[26] = 100 g ai/ha, Rice (20 days after treatment)
[27] = 50 g ai/ha, Soybean (10 days after treatment)
[28] = 50 g ai/ha, Soybean (20 days after treatment)
[29] = 100 g ai/ha, Soybean (10 days after treatment)
[30] = 100 g ai/ha, Soybean (20 days after treatment)
[31] = 50 g ai/ha, Wheat (10 days after treatment)
[32] = 50 g ai/ha, Wheat (20 days after treatment)
[33] = 100 g ai/ha, Wheat (10 days after treatment)
[34] = 100 g ai/ha, Wheat (20 days after treatment)

Structure (SMILES)	pest or weed control at 50 g/ha [3] [%]	pest or weed control at 50 g/ha [5] [%]	pest or weed control at 50 g/ha [6] [%]	Soil treatment phytotoxicity, Corn [10, 15]	Soil treatment phytotoxicity, Corn [10, 16]	Soil treatment phytotoxicity, Corn [10, 17]	Soil treatment phytotoxicity, Corn [10, 18]	Soil treatment phytotoxicity, Cotton [11, 19]	Soil treatment phytotoxicity, Cotton [11, 20]	Soil treatment phytotoxicity, Cotton [11, 21]	Soil treatment phytotoxicity, Cotton [11, 22]	Soil treatment phytotoxicity, Rice [12, 23]	Soil treatment phytotoxicity, Rice [12, 24]	Soil treatment phytotoxicity, Rice [12, 25]	Soil treatment phytotoxicity, Rice [12, 26]	Soil treatment phytotoxicity, Soybean [13, 28]	Soil treatment phytotoxicity, Soybean [13, 30]	Soil treatment phytotoxicity, Wheat [14, 31]	Soil treatment phytotoxicity, Wheat [14, 32]	Soil treatment phytotoxicity, Wheat [14, 33]	other results
Cn1nnc(COCc2nc(C(F)F)ccc2C(=O)Nc2nnnn2C)n1 [Compound No. 2-84, 6-(difluoromethyl)-N-(1-methyl-1H-tetrazol-5-yl)-2-(((2-methyl-2H-tetrazol-5-yl)methoxy)methyl)nicotinamide]	90	70	60	0	0	1	0	0	6	3	7	5	3	6	7	0	0	0	0	0	pest or weed control at 50 g/ha [1]: 95%; pest or weed control at 50 g/ha [2]: 95%; Foliar treatment herbicidal activity, black nightshade [4]: 100; plant injury at 50 g/ha [7]: 20%; pest or weed control at 50 g/ha [8]: 20%; Soil treatment herbicidal activity, Cocklebur [9]: 0; Soil treatment phytotoxicity, Soybean [13, 27]: 0; Soil treatment phytotoxicity, Soybean [13, 29]: 0
Cn1nnc(CSCc2nc(C(F)(F)F)ccc2C(=O)N(C(=O)c2ccccc2)c2nnnn2C)n1 [Compound No. 2-109, N-benzoyl-N-(1-methyl-1H-tetrazol-5-yl)-2-((((2-methyl-2H-tetrazol-5-yl)methyl)thio)methyl)-6-(trifluoromethyl)nicotinamide]	95	98	98	0	0	1	0	0	0	0	1	0	0	0	0	1	0	0	0	0	Foliar treatment herbicidal activity, barnyard grass [1]: 100; Foliar treatment herbicidal activity, Crabgrass [2]: 100; Foliar treatment herbicidal activity, black nightshade [4]: 100; Soil treatment herbicidal activity, Sorghum [7]: 0; Soil treatment herbicidal activity, Fall panicum [8]: 0; Soil treatment herbicidal activity, Cocklebur [9]: 0; Soil treatment phytotoxicity, Wheat [14, 34]: 0
Cn1ncnc1COc1nc(C(F)(F)F)ccc1C(=O)Nc1nnnn1C [Compound No. 1-45, 2-((1-methyl-1H-1,2,4-triazol-5-yl)methoxy)-N-(1-methyl-1H-tetrazol-5-yl)-6-(trifluoromethyl)nicotinamide]	95	70	98	0	0	1	0	1	4	3	5	9	9	9	9	0	0	0	0	0	pest or weed control at 50 g/ha [1]: 95%; pest or weed control at 50 g/ha [2]: 95%; Foliar treatment herbicidal activity, black nightshade [4]: 100; Soil treatment herbicidal activity, Sorghum [7]: 0; pest or weed control at 50 g/ha [8]: 98%; Soil treatment herbicidal activity, Cocklebur [9]: 0; Soil treatment phytotoxicity, Soybean [13, 27]: 0; Soil treatment phytotoxicity, Soybean [13, 29]: 0; Soil treatment phytotoxicity, Wheat [14, 34]: 0
Cn1nnc(COCc2nc(C(F)(F)Cl)ccc2C(=O)Nc2nnnn2C)n1 [Compound No. 2-78, 6-(chlorodifluoromethyl)-N-(1-methyl-1H-tetrazol-5-yl)-2-(((2-methyl-2H-tetrazol-5-yl)methoxy)methyl)nicotinamide]	70	80	40	0	0	1	0	2	6.5	3	9	6	6	9	9	0	0	0	0	0	pest or weed control at 50 g/ha [1]: 70%; pest or weed control at 50 g/ha [2]: 70%; pest or weed control at 50 g/ha ([4]; Solanum nigrum): 95%; plant injury at 50 g/ha [7]: 50%; pest or weed control at 50 g/ha [8]: 90%; pest or weed control at 50 g/ha ([9]; Xanthium strumarium): 70%; Soil treatment phytotoxicity, Soybean [13, 27]: 0; Soil treatment phytotoxicity, Soybean [13, 29]: 0; Soil treatment phytotoxicity, Wheat [14, 34]: 0

Source: patent US12495798B2, “Nicotinamide compound and herbicidal composition comprising compound” (KOREA RESEARCH INSTITUTE OF CHEMICAL TECHNOLOGY, priority 2019, dated 2025)
